The test system of one assay is hepatoma cell lines. The note with it: Kicic et al, 2001; cited from earlier work.
For assay [1], the target named is T1, CCK-2 receptor (Homo sapiens, UniProt P32239).
T1 sequence (P32239 1-447): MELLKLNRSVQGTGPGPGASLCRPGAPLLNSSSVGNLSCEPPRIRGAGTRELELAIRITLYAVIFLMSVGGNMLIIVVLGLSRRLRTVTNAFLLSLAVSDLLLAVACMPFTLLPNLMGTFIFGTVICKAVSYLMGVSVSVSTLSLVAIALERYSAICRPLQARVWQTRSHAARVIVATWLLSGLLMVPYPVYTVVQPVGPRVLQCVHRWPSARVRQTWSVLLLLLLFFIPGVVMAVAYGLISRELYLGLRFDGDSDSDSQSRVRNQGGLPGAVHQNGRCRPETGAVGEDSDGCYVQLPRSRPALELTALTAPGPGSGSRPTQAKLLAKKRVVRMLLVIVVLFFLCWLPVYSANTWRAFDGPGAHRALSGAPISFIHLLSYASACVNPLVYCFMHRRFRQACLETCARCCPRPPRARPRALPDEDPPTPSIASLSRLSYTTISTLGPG
The assay is described as follows: [125I]-BH-CCK8 displacement, CCK-2 receptor on transiently transfected COS-7 cells. The class given is binding. As to conditions: for % Maximum Binding (COS-7): binding in the absence of competitor, fitted, mean ± S.E.; for Predicted ordinate intercept, FIG. 21: single experiment; for Ratio IC50 mutant/IC50 Gamide: transfected COS-7 cells. Also on record: COS-7 cells transiently transfected with CCK-2 receptor cDNA; expressed in transfected cells; host or cells: COS-7. As to the method:
(§1) Non-specific binding was evaluated with […] of unlabelled CCK8. Incubation was stopped by adding 2 ml of ice-cold PBS containing 2% bovine serum albumin. After centrifugation, supernatants were removed and the radioactivity bound to the cell membranes was measured in a γ-counter (LKB, Wallac, Finland).
The lines of best fit shown in FIG. 21 were obtained by nonlinear regression to a single site model with the program Sigmaplot.

In assay [2] the target is T1, CCK-2 receptor. The assay is described as follows: Gamide-stimulated inositol phosphate production in COS-7 cells transfected with the CCK-2 receptor. The class given is cell-based. Also on record: COS-7 cells transiently transfected with CCK-2 receptor cDNA; expressed in transfected cells; host or cells: COS-7. The note with it: for Stimulation of inositol phosphate production: 10 nM peptide. As for the experimental part:
(§2) Intracellular inositol phosphate production was determined as described previously (Qian et al, 1993). IMGE-5 cells (10^5 cells/ml) were plated in 24-multiwell culture plates in DMEM supplemented with 10% FBS, 200 IU/ml penicillin and 200 μg/ml streptomycin. 24 h later, cells were incubated with DMEM supplemented with antibiotics and Myo-[2-^3H]inositol (2.5 μCi/well) and shifted to 39° C. for 16 h. Cells were then washed with pre-warmed DMEM and incubated (20-30 minutes, 37° C.) with DMEM supplemented with 20 mM LiCl. Loaded cells were then washed in 1 ml of IP buffer (135 mM NaCl, 20 mM N-(2-hydroxyethyl)piperazine-N′-(2-ethanesulfonic acid), 2 mM CaCl2, 1.2 mM MgSO4, 1 mM ethylene glycol-bis(2-aminoethylether)-N,N,N′,N′-tetraacetic acid, 10 mM LiCl, and 0.5% bovine serum albumin, pH 7.45) and incubated with or without agonist in a final volume of 0.5 ml of IP buffer. After 1-h incubation at 37° C., the reaction was stopped by removing the incubation medium and adding 1 ml of a mixture of ethanol/HCl (2000:1; v/v). One ml of each aliquot was applied to a column containing 1.6 ml of a 1:2 (v/v) Dowex AG-1-X8 anion exchange resin in distilled water. The columns were washed with 4 ml of distilled water, followed by 4 ml of 40 mM HCOONH4, and inositol phosphates were eluted with 4 ml of 1 M HCOONH4. The radioactivity of each eluate was counted after addition of Complete phase combining system solution (Amersham, UK). For the positive control, IMGE-5 cells were incubated with a combination of 30 mM NaF and 10 μM AlCl3 under the same experimental conditions.
Gamide-stimulated inositol phosphate production was measured in COS-7 cells transfected with the CCK-2 receptor. […] Bismuth ions alone had no effect on inositol phosphate production in CCK-2 receptor-transfected COS-7 cells and HT29 cells, even at the highest concentration tested.
We then investigated the role of the individual glutamates in biological activity. The effects of the mutants GamideE7A and GamideE8,9A on inositol phosphate production in COS-7 cells transiently transfected with the CCK-2 receptor were compared.

For assay [3], the target named is T1, CCK-2 receptor. The assay is described as follows: [125I]-BH-CCK8 displacement, CCK-2 receptor on Jurkat cells. The class given is binding. The note with it: for Ratio IC50 mutant/IC50 Gamide: T-lymphoblastoid Jurkat cells; for % Maximum Binding (Jurkat): binding in the absence of competitor, fitted, mean ± S.E. As to the method:
as §1

Assay [4] is described as follows: Quenching of peptide tryptophan fluorescence by ferric ions (stoichiometry, apparent Kd). The class given is binding. The note with it: pH 4.0; mean ± S.E.; read-out: Kd (μM) of ferric ion binding (amidated gastrin17 and related peptides). As to the method: The tryptophan fluorescence of peptide solutions was measured in 3 mL quartz cuvettes thermostated at […], with a Spex Fluorolog-2 spectrofluorimeter (Spex Industries, Edison, N.J.), with the excitation and emission wavelengths set at 290 and 345 nm, respectively. The quenching of tryptophan fluorescence induced by the binding of metal ions was used to calculate the fraction of binding sites occupied, fa: fa=(yf−y)/(yf−yb) where y is the fluorescence signal at a given concentration of metal ions and yb and yf are the signals when the binding sites are fully occupied and unoccupied, respectively (Winzor et al, 1995). The stoichiometry, p, and apparent dissociation constant, Kd, were then obtained, using the program Sigmastat (Jandel Scientific, San Rafael, Calif.), from the intercept and slope of a linear regression of the data transformed as described by Winzor and Sawyer (1995) in terms of the equation Cs/fa=pCa+Kd/(1−fa) where Cs is the total concentration of metal ions, and Ca is the total concentration of glycine-extended gastrin17. For the bismuth binding studies, the data was fitted by non-linear regression with the program Sigmaplot (Jandel Scientific, San Rafael, Calif.) to the equations for models with one binding site or two binding sites with identical affinities: fa=x/(Kd1+x) or to the model with two binding sites with different affinities: fa=(Kd1·x+Kd2·x+2x^2)/2(Kd1·Kd2+Kd1·x+Kd2·x+x^2) where x is the concentration of free metal ions, Kd1 is the first site dissociation constant and Kd2 is the second site dissociation constant. For the one-site model the value of x at any given total concentration of metal ions was obtained by exact solution of the appropriate quadratic (Malby et al, 2001). For the two-site models the value of x was obtained by an iterative Newton-Raphson procedure (Linse et al, 1991). Absorption Spectroscopy
The tryptophan fluorescence of progastrin6-80, glycine-extended gastrin17 and related peptides was measured in the presence of increasing concentrations of ferric ions in 10 mM sodium acetate, pH 4.0, 100 mM NaCl, 0.005% Tween 20. […] Values from the indicated number of independent experiments were combined to obtain the mean values (±S.E.) presented above. No binding of ferric ions to Ggly1-4 or Ggly12-18 was observed.
The tryptophan fluorescence of amidated gastrin17 and related peptides was measured in the presence of increasing concentrations of ferric ions at pH 4.0 (8). Values of the stoichiometry and the apparent dissociation constant (Kd) were obtained from linear transformations of the data presented in FIG. 20A by least squares fitting. Values from the indicated number of independent experiments were combined to obtain the mean values (±S.E.) presented above.

The test system of assay [5] is HT29 human colorectal carcinoma cells. The assay is described as follows: Ggly-stimulated inositol phosphate production in HT29 cells. The note with it: HT29 cells. The class given is cell-based. As to the method: as §2
Ggly-stimulated inositol phosphate production was measured in HT29 human colorectal carcinoma cells.

For assay [6] the following is noted: pH 4.0; Ref. 8 given in table; read-out: Kd (μM), apparent dissociation constant for ferric ions; cited from earlier work.
The test system of the next assay is IMGE-5 cells. The assay is described as follows: IMGE-5 cell proliferation, MTT assay. The class given is cell-based, mice. As to the method: The IMGE-5 cell line was established from the gastric mucosa of mice transgenic for a temperature-sensitive mutant of the SV40 large T antigen (Hollande et al, 2001). IMGE-5 cells were generally grown at 33° C. in DMEM containing 1 unit/ml γ-interferon, 10% FBS, 100 U/ml penicillin, and 100 μg/ml streptomycin (permissive conditions). For all experiments, cells were transferred to 39° C. in the same medium without […] (non-permissive conditions), where they display differentiated characteristics such as expression of functional adherens and tight junctions. All experiments have been performed on cells between passages 20 and 35.
A colorimetric assay was used to measure cell proliferation. Briefly, IMGE-5 cells were seeded in a 96-well plate at a density of 10^4 cells/well in DMEM containing 10% FBS and antibiotics. The following day, cells were synchronized in Go by incubation for 24 h in the same medium lacking FBS. The medium was replaced the next day with fresh medium containing 1% FBS and antibiotics and the peptides under investigation, and incubation was continued for 72 h. 15 μl of 5 mg/ml 3-(4,5-dimethylthiazol-2-yl)-2-5-diphenyltetrazolium bromide (MTT, Sigma, St Louis Mo.) was added per well, and the plate was incubated at 37° C. for 4 h before the medium was discarded. 200 μl 40 mM HCl in isopropanol was added to lyse the cells, and the absorbance at 570 nm was read on a BioRad Model 550 Microplate reader (BioRad, Hercules, Calif.).

The text below walks through data of patent US20070031511A1, “Method of treatment” (priority 2003, published 2007).

Where two headings read alike, the source gives them in different places. Where a SMILES comes first, the peptide text is derived from it. Where no end group is shown, it is not given here. [ ]: non-standard residue; d: D form. pGlu = O=C1CC[C@@H](C(=O)O)N1

On to `Cc1ncc(CO)c(C=NNC(=O)c2ccncc2)c1O` [pyridoxal isonicotinoyl hydrazone], for which, in the assay on hepatoma cell lines, the “Inhibition of proliferation of hepatoma cell lines in vitro” value (from here on “Inhibition”) is “effective inhibitors”.

For `CSCC[C@H](NC(=O)[C@H](Cc1c[nH]c2ccccc12)NC(=O)CNC(=O)[C@H](Cc1ccc(O)cc1)NC(=O)[C@H](C)NC(=O)[C@H](CCC(=O)O)NC(=O)[C@H](C)NC(=O)[C@H](C)NC(=O)[C@H](CCC(=O)O)NC(=O)[C@H](CCC(=O)O)NC(=O)[C@H](CC(C)C)NC(=O)[C@H](Cc1c[nH]c2ccccc12)NC(=O)[C@@H]1CCCN1C(=O)CNC(=O)[C@@H]1CCC(=O)N1)C(=O)N[C@@H](CC(=O)O)C(=O)N[C@@H](Cc1ccccc1)C(N)=O` [GamideE8, 9A] ([pGlu]GPWLEEAAEAYGWMDF-NH2), at CCK-2 receptor [1], the “% Maximum Binding (COS-7)” value is reported as 98.4 ± 2.1%; the “Predicted ordinate intercept, FIG. 21” value was 91.0%; the “Ratio IC50 mutant/IC50 Gamide” value is 4.1. In addition, on CCK-2 receptor [2], the “Stimulation of inositol phosphate production” value is listed as “No significant difference was observed in the extent of stimulation”. Moreover, on CCK-2 receptor [3], the “Ratio IC50 mutant/IC50 Gamide” value is 2.2 and the “% Maximum Binding (Jurkat)” value was 97.8 ± 9.0%. The Kd in assay [4] came to 0.16 ± 0.06 µM.

On to `[F][Al-]([F])([F])[F]` [AlF4^−], for which the “Increase in inositol phosphate production” value is recorded as 2.6 fold in assay [5] and 5 fold at CCK-2 receptor [2] (COS-7 cells transfected with the CCK-2 receptor, 10 μM AlF4−, 10 nM Gamide).

As for “ZGPWLE5A ([pGlu]GPWLEEEEEA; listed as Homo sapiens) [Ggly1-11]”, the Kd in assay [6] was 1.2 ± 0.04 µM. In addition, the “Stimulation of IMGE-5 cell proliferation” value with IMGE-5 cells (MTT assay, peptides shown at 1 nM (FIGS. 7A, 8A)) is “did increase proliferation, but to a significantly lesser extent than Ggly”. In the assay with IMGE-5 cells (cell proliferation or wound healing assays (FIG. 7)), the “Reduction of activity relative to Ggly” value is recorded as “approximately 50%”.

Turning to `O=C(O)CN(CCN(CC(=O)O)CC(=O)O)CCN(CC(=O)O)CC(=O)O` [DTPA, diethylene triamine pentaacetic acid], the “Inhibition” value in the assay on hepatoma cell lines is reported as “the best inhibitor of all those tested”.

For the compound `O=C(O)CN(CCN(CC(=O)O)CC(=O)O)CC(=O)O` [EDTA, ethylene diamine tetraacetic acid], the “Inhibition” value in the assay on hepatoma cell lines was “ineffective”.

For `Cc1c(O)c(=O)ccn1C` [1,2-dimethyl-3-hydroxypyridin-4-one], the “Inhibition” value with hepatoma cell lines is on record as “effective inhibitors”.

As to `CSCC[C@H](NC(=O)[C@H](Cc1c[nH]c2ccccc12)NC(=O)CNC(=O)[C@H](Cc1ccc(O)cc1)NC(=O)[C@H](C)NC(=O)[C@H](CCC(=O)O)NC(=O)[C@H](CCC(=O)O)NC(=O)[C@H](CCC(=O)O)NC(=O)[C@H](C)NC(=O)[C@H](CCC(=O)O)NC(=O)[C@H](CC(C)C)NC(=O)[C@H](Cc1c[nH]c2ccccc12)NC(=O)[C@@H]1CCCN1C(=O)CNC(=O)[C@@H]1CCC(=O)N1)C(=O)N[C@@H](CC(=O)O)C(=O)N[C@@H](Cc1ccccc1)C(N)=O` [GamideE7A] ([pGlu]GPWLEAEEEAYGWMDF-NH2), on CCK-2 receptor [1], the “% Maximum Binding (COS-7)” value was 92.0 ± 1.0%; the “Predicted ordinate intercept, FIG. 21” value is 91.6%; the “Ratio IC50 mutant/IC50 Gamide” value was 1.4. Also, the “Stimulation of inositol phosphate production” value on CCK-2 receptor [2] is given as “No significant difference was observed in the extent of stimulation”. At CCK-2 receptor [3], the “Ratio IC50 mutant/IC50 Gamide” value stood at 2.4 and the “% Maximum Binding (Jurkat)” value is reported as 96.7 ± 4.6%. For the same compound, the Kd in assay [4] was 0.17 ± 0.03 µM.
